Results taken from patent US20240262795A1, “PYRAZINE COMPOUNDS AS INHIBITORS OF FLT3” (Biomea Fusion, Inc., priority 2021, published 2024).

What was measured:
K-562 = test: Proliferation inhibition, CellTiter-Glo, K-562; type: cell-based, human; conditions: Homo sapiens, K562, 96 h; K-562 cells, IC50 (4 days), CellTiter-Glo; read-out: K-562 IC50
Summary of the method: (§1)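 About 10,000 cells per well in RPMI-1640 with 10% FBS. Compounds added 2 h after seeding at eight concentrations in duplicate (0.2% DMSO as 100% proliferation), then incubated ~96 h at 37° C, 5% CO2. ATP measured by CellTiter-Glo luminescence; IC50 from four-parameter logistic fit.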

WT FLT3 = biological target: T1, WT FLT3 (Homo sapiens, UniProt P36888); test: WT FLT3 Lance Ultra TR-FRET kinase assay; type: biochemical
T1 construct: purchased Invitrogen PR4666C
T1 sequence (P36888 564-993 limits assumed): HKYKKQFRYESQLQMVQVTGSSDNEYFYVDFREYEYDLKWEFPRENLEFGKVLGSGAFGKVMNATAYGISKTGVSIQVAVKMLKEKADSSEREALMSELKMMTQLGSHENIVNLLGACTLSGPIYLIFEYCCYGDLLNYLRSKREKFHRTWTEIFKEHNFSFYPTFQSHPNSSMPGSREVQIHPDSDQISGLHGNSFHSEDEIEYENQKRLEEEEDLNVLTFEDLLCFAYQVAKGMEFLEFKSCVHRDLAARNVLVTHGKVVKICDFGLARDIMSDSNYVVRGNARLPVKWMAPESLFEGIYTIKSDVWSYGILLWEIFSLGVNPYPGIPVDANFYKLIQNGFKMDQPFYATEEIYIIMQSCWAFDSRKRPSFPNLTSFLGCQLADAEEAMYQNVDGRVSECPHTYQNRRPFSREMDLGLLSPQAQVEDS
Description: (§2) High throughput 384-well Lance Ultra TR-FRET based kinase assays were established for the WT FLT3 and FLT3-ITD enzymes and employed a ULight-labeled peptide […] and FLT3 proteins labelled with Eu-conjugated antibody […] (WuXi Aptec). The principle of TR-FRET is based on transfer of energy between a donor and acceptor fluorophore that results when the fluorophores are within close proximity (˜100 Å) of each other. Recombinant WT FLT3 (#PR4666C, M.W. 48.6 kDa) was purchased from Invitrogen and FLT3-ITD (FLT3-ITD-W51, #F-12-12CG-10, M.W. 76 kDa) was purchased from Signalchem. Optimal assay conditions for the WT FLT3 enzyme assay were as follows: 0.5 nM FLT3 protein, 50 nM ULight-JAK-1 (Tyr1023) substrate peptide (PerkinElmer #TRF0121), 100 μM ATP, 60 min reaction time. Optimal assay conditions for the FLT3-ITD enzyme assay were as follows: 0.0625 nM FLT3-ITD protein, 50 nM ULight-JAK-1 (Tyr1023) substrate peptide, 50 μM ATP, 90 min reaction time. Briefly, 11 dose 3× serial dilutions were prepared for the test compounds and the reference compound and 100 nanoliters transferred to appropriate wells of 384-well assay plates. Five microliters of 2× enzyme/peptide were added into assay wells, assay plates centrifuged at 1000 rpm for about 30 seconds, sealed with sealing film and incubated for 30 min at 23° C. Assay buffer comprised 50 mM HEPES (pH 7.5), 1 mM EDTA, 0.01% Brij-35, 10 mM MgCl2 and 2 mM DTT. Next 5 μl of a 2× ATP mixture were added into the assay wells and the plates centrifuged at 1000 rpm about 30 seconds, sealed with sealing film and incubated for 23° C. for appropriate duration. Following assay incubation (30 min for WT FLT3 and 60 min for FLT3-ITD) 10 μl 2× Detection Mixture (Eu-W1024 Anti-phosphotyrosine (PT66) 2 nM and EDTA 10 mM) was added to assay wells, assay plates centrifuge at 1000 rpm about 1 minutes, sealed with sealing film and incubated at 23° C. for 60 minutes. Assay plates were read on a Perkin Elmer Envision reader at two wavelengths (665/615) and the ratio of […] calculated.
(§3) Data was expressed as % of inhibition relative to the vehicle control and calculated as follows:
(§4) Results were analyzed by XLFIT5 as % inhibition vs. log [compound concentration] and IC50 values were calculated by non-linear regression using four parameter-logistic equation. Fit=(A+((B−A)/(1+((C/x)^D)))). Res=(y−fit).

MV-4-11 = test: Proliferation inhibition, CellTiter-Glo, MV-4-11; type: cell-based, human; conditions: Homo sapiens, MV4-11, 96 h; MV-4:11 cells, IC50 (4 days), CellTiter-Glo; read-out: MV-4:11 IC50
Summary of the method: as §1

FLT3-ITD = biological target: T2, FLT3-ITD (Homo sapiens, UniProt P36888, DUP595-601); test: FLT3-ITD Lance Ultra TR-FRET kinase assay; type: biochemical
T2 construct: purchased Signalchem F-12-12CG-10
T2 sequence (P36888 with tags, fused parts or gaps DUP595-601 limits assumed): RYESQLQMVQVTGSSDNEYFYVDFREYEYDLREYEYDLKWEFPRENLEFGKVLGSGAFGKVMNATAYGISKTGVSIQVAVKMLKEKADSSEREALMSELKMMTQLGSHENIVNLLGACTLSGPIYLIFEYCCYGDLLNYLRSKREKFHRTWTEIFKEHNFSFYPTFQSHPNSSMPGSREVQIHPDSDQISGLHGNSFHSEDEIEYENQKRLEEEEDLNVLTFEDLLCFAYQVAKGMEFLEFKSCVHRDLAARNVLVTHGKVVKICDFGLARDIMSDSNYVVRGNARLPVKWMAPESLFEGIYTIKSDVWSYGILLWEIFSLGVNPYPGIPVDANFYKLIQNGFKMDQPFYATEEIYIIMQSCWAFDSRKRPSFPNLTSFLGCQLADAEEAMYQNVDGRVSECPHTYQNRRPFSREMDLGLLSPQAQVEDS
Description: as §2, §3, §4

MOLM-13 = test: Proliferation inhibition, CellTiter-Glo, MOLM-13; type: cell-based, human; conditions: Homo sapiens, 96 h; MOLM-13 cells, IC50 (4 days), CellTiter-Glo; read-out: MOLM-13 IC50
Summary of the method: as §1

SMILES: CCc1nc(C(N)=O)c(Nc2cccc(CCNC(=O)[C@H](C)N(C)C(=O)/C=C/CN(C)C)c2)nc1N(C)C [Compound 137, (S,E)-5-(dimethylamino)-3-((3-(2-(2-(4-(dimethylamino)-N-methylbut-2-enamido)propanamido)ethyl)phenyl)amino)-6-ethylpyrazine-2-carboxamide]
- IC50 (K-562): > 500 nM
- IC50 (WT FLT3): 0.501 to 1 nM
- IC50 (MV-4-11): < 1 nM
- IC50 (FLT3-ITD): 0.201 to 0.5 nM
- IC50 (MOLM-13): < 1 nM

SMILES: Cc1nc(C(N)=O)c(Nc2cccc(CCNC(=O)CN(C)C(=O)/C=C/CN(C)C)c2)nc1C1CC1 [Compound 241, (E)-5-cyclopropyl-3-((3-(2-(2-(4-(dimethylamino)-N-methylbut-2-enamido)acetamido)ethyl)phenyl)amino)-6-methylpyrazine-2-carboxamide]
- IC50 (K-562): > 500 nM
- IC50 (WT FLT3): > 1 nM
- IC50 (MV-4-11): 1 to 10 nM
- IC50 (FLT3-ITD): 0.201 to 0.5 nM
- IC50 (MOLM-13): 1 to 10 nM

SMILES: C=CC(=O)N(C)CC(=O)NCCc1cc(Nc2nc(N(C)CC)c(CC)nc2C(N)=O)ccn1 [Compound 515, 6-ethyl-5-(ethyl(methyl)amino)-3-((2-(2-(2-(N-methylacrylamido)acetamido)ethyl)pyridin-4-yl)amino) pyrazine-2-carboxamide]
- IC50 (K-562): > 500 nM
- IC50 (WT FLT3): 0.501 to 1 nM
- IC50 (MV-4-11): < 1 nM
- IC50 (FLT3-ITD): 0.101 to 0.2 nM
- IC50 (MOLM-13): 1 to 10 nM

SMILES: C=CC(=O)N(C)CC(=O)NCCc1cccc(Nc2nc(CC(C)C)c(CC)nc2C(N)=O)c1 [Compound 510, 6-ethyl-5-isobutyl-3-((3-(2-(2-(N-methylacrylamido)acetamido)ethyl)phenyl)amino) pyrazine-2-carboxamide]
- IC50 (K-562): > 500 nM
- IC50 (WT FLT3): > 1 nM
- IC50 (MV-4-11): 10 to 100 nM
- IC50 (FLT3-ITD): > 1 nM
- IC50 (MOLM-13): 10 to 100 nM

SMILES: CCc1nc(C(N)=O)c(Nc2cccc(CCNC(=O)[C@H](C)NC(=O)/C=C/CN(C)C)c2)nc1NC(C)C [Compound 501, (S, E)-3-((3-(2-(2-(4-(dimethylamino)but-2-enamido)propanamido)ethyl)phenyl)amino)-6-ethyl-5-(isopropylamino) pyrazine-2-carboxamide]
- IC50 (K-562): > 500 nM
- IC50 (WT FLT3): 0.501 to 1 nM
- IC50 (MV-4-11): < 1 nM
- IC50 (FLT3-ITD): 0.501 to 1 nM
- IC50 (MOLM-13): < 1 nM

SMILES: CCc1nc(C(N)=O)c(Nc2cccc(CCNC(=O)[C@H](C)N(C)C(=O)C#CCN(C)C)c2)nc1N(C)C [Compound 203, (S)-5-(dimethylamino)-3-((3-(2-(2-(4-(dimethylamino)-N-methylbut-2-ynamido)propanamido)ethyl)phenyl)amino)-6-ethylpyrazine-2-carboxamide]
- IC50 (K-562): > 500 nM
- IC50 (WT FLT3): 0.501 to 1 nM
- IC50 (MV-4-11): < 1 nM
- IC50 (FLT3-ITD): 0.201 to 0.5 nM
- IC50 (MOLM-13): 1 to 10 nM

SMILES: CCc1nc(C(N)=O)c(Nc2cccc(CCNC(=O)[C@H](C)N(C)C(=O)/C=C/CN(C)C)c2)nc1C1CC1 [Compound 138, (S,E)-5-cyclopropyl-3-((3-(2-(2-(4-(dimethylamino)-N-methylbut-2-enamido)propanamido)ethyl)phenyl)amino)-6-ethylpyrazine-2-carboxamide]
- IC50 (K-562): > 500 nM
- IC50 (WT FLT3): 0.201 to 0.5 nM
- IC50 (MV-4-11): < 1 nM
- IC50 (FLT3-ITD): 0.201 to 0.5 nM
- IC50 (MOLM-13): 1 to 10 nM

SMILES: CCc1nc(C(N)=O)c(Nc2cccc(CCNC(=O)[C@H](C)N(C)C(=O)/C=C/CNC)c2)nc1NC(C)C [Compound 303, (S, E)-6-ethyl-5-(isopropylamino)-3-((3-(2-(2-(N-methyl-4-(methylamino)but-2-enamido)propanamido)ethyl)phenyl)amino) pyrazine-2-carboxamide]
- IC50 (K-562): > 500 nM
- IC50 (WT FLT3): 0.201 to 0.5 nM
- IC50 (MV-4-11): < 1 nM
- IC50 (FLT3-ITD): 0.201 to 0.5 nM
- IC50 (MOLM-13): < 1 nM

SMILES: CCc1nc(C(N)=O)c(Nc2cccc([C@@H](C)CNC(=O)CN(C)C(=O)/C=C/CN3CCC3)c2)nc1CC(C)C [Compound 517, (R, E)-3-((3-(1-(2-(4-(azetidin-1-yl)-N-methylbut-2-enamido)acetamido)propan-2-yl)phenyl)amino)-6-ethyl-5-isobutylpyrazine-2-carboxamide]
- IC50 (K-562): > 500 nM
- IC50 (WT FLT3): 0.501 to 1 nM
- IC50 (MV-4-11): 1 to 10 nM
- IC50 (FLT3-ITD): 0.501 to 1 nM
- IC50 (MOLM-13): 1 to 10 nM

SMILES: CCc1nc(Nc2cccc([C@@H](C)CNC(=O)CN(C)C(=O)/C=C/CN(C)C)c2)c(C(N)=O)nc1CC [Compound 503, (R, E)-3-((3-(1-(2-(4-(dimethylamino)-N-methylbut-2-enamido)acetamido)propan-2-yl)phenyl)amino)-5,6-diethylpyrazine-2-carboxamide]
- IC50 (K-562): > 500 nM
- IC50 (WT FLT3): 0.201 to 0.5 nM
- IC50 (MV-4-11): < 1 nM
- IC50 (FLT3-ITD): 0.501 to 1 nM
- IC50 (MOLM-13): < 1 nM

SMILES: CCc1nc(C(N)=O)c(Nc2cc(CCNC(=O)[C@H](C)N(C)C(=O)/C=C/CN(C)C)cc(OC)c2)nc1N(C)C [Compound 143]
- IC50 (K-562): > 500 nM
- IC50 (WT FLT3): 0.101 to 0.2 nM
- IC50 (MV-4-11): < 1 nM
- IC50 (FLT3-ITD): 0.101 to 0.2 nM
- IC50 (MOLM-13): < 1 nM

SMILES: CCc1nc(C(N)=O)c(Nc2cccc([C@@H](C)CNC(=O)CN(C)C(=O)/C=C/CN(C)C)c2)nc1C [Compound 321, (R,E)-3-((3-(1-(2-(4-(dimethylamino)-N-methylbut-2-enamido)acetamido)propan-2-yl)phenyl)amino)-6-ethyl-5-methylpyrazine-2-carboxamide]
- IC50 (K-562): > 500 nM
- IC50 (WT FLT3): 0.501 to 1 nM
- IC50 (MV-4-11): 1 to 10 nM
- IC50 (FLT3-ITD): > 1 nM
- IC50 (MOLM-13): 1 to 10 nM

SMILES: Cc1nc(C(N)=O)c(Nc2cc(F)cc(CCNC(=O)[C@H](C)N(C)C(=O)/C=C/CN(C)C)c2)nc1N(C)C [Compound 239, 5-(dimethylamino)-3-[3-[2-[[(2S)-2-[[(E)-4-(dimethylamino)but-2-enoyl]-methyl-amino]propanoyl]amino]ethyl]-5-fluoro-anilino]-6-methyl-pyrazine-2-carboxamide]
- IC50 (K-562): > 500 nM
- IC50 (WT FLT3): 0.501 to 1 nM
- IC50 (MV-4-11): 1 to 10 nM
- IC50 (FLT3-ITD): 0.101 to 0.2 nM
- IC50 (MOLM-13): 10 to 100 nM

SMILES: CCc1nc(C(N)=O)c(Nc2cc(CCNC(=O)[C@H](C)N(C)C(=O)/C=C/CN(C)C)cc(OC)c2)nc1C1CC1 [Compound 144, (S,E)-5-cyclopropyl-3-((3-(2-(2-(4-(dimethylamino)-N-methylbut-2-enamido)propanamido)ethyl)-5-methoxyphenyl)amino)-6-ethylpyrazine-2-carboxamide]
- IC50 (K-562): > 500 nM
- IC50 (WT FLT3): 0.201 to 0.5 nM
- IC50 (MV-4-11): < 1 nM
- IC50 (FLT3-ITD): 0.201 to 0.5 nM
- IC50 (MOLM-13): < 1 nM
